Earlier results as cited in publication PMC10216446 (Biomolecules, 2023).

Columns and labels:
human cytochrome P450s = test system: human cytochrome P450s; parameters: method as in PMID 27689003
[1] = stated as a known limitation of TNP, no reference given
IP6K = details: reported values; read-out: reported IC50 values for TNP

Which “inhibition of human cytochrome P450s” value (human cytochrome P450s) does the source give for O=[N+]([O-])c1ccc(CNc2nc(NCc3cccc(C(F)(F)F)c3)nc3nc[nH]c23)cc1 [TNP, N2-(m-trifluorobenzyl), N6-(p-nitrobenzyl)purine] here?
The value was “potent inhibitor of human cytochrome P450s”.

What about the aqueous solubility [1] of the same molecule?
The aqueous solubility was “poor”.

And the IC50 (IP6K)?
The IC50 was 0.25 to 1 µM.
